Test results taken from patent US8653138B2, “Calcium salts of compounds as anti-inflammatory, immunomodulatory and anti-proliferatory agents” (4SC MG, priority 2010, dated 2014).

biological target: T1, recombinant human DHODH (Homo sapiens, UniProt Q02127); experiment: Inhibition assay of DHODH activity, human enzyme; type: biochemical; conditions: class symbol (head prints μM, key in nM)
T1 construct: provided by Prof; M. Löffler, Marburg, Germany (gift, not a commercial vendor)
Experimental: The standard assay mixture contained 50 μM decyclo ubichinone, 100 μM dihydroorotate, 60 μM 2,6-dichloroindophenol, as well as 20 mU DHODH. The volume activity of the recombinant enzyme used was 30 U/ml. Measurements were conducted in 50 mM TrisHCl (150 mM KCl, 0.1% Triton X-100, pH 8.0) at 30° C. in a final volume of 1 ml. The components were mixed, and the reaction was started by adding dihydroorotate. The course of reaction was followed by spectrophotometrically measuring the decrease in absorption at 600 nm for 2 min.
Inhibitory studies were conducted in a standard assay with additional variable amounts of inhibitor.
These investigations were carried out with recombinant human as well as with recombinant murine DHODH provided by Prof. M. Löffler, Marburg, Germany [M. Löffler, Chem. Biol. Interact.

T1 sequence (Q02127 whole entry): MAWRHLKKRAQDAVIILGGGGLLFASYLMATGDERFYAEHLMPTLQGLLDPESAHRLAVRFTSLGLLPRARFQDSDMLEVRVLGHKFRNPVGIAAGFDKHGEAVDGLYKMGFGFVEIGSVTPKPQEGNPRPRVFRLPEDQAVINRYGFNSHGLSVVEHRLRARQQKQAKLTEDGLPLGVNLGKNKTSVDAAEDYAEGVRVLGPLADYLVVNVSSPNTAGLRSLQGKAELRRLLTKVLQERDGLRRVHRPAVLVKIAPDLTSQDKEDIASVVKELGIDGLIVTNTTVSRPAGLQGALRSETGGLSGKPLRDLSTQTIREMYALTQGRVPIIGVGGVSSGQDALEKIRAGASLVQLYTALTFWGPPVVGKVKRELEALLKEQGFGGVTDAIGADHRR

Q: Which IC50 does the source give for O=C(O)C1=C(C(=O)Nc2ccc(-c3ccccc3F)cc2)CCC1 [Compound 13, 2-((2′-fluoro-[1,1′-biphenyl]-4-yl)carbamoyl)cyclopent-1-enecarboxylic acid] here?
A: < 0.8 µM

Q: Which IC50 does the source give for O=C(O)C1=C(C(=O)Nc2ccc(-c3ccccc3Cl)cc2)CCC1 [Compound 14, 2-((2′-chloro-[1,1′-biphenyl]-4-yl)carbamoyl)cyclopent-1-enecarboxylic acid] here?
A: < 0.8 µM

Q: For COc1ccccc1-c1ccc(NC(=O)C2=C(C(=O)O)CCC2)cc1 [Compound 15, 2-((2′-methoxy-[1,1′-biphenyl]-4-yl)carbamoyl)cyclopent-1-enecarboxylic acid], which IC50 is on record?
A: < 0.8 µM

Q: Which IC50 does the source give for O=C(O)C1=C(C(=O)Nc2ccc(OCc3c(F)cccc3F)cc2)CCC1 [Compound 16, 2-((4-((2,6-difluorobenzyl)oxy)phenyl)carbamoyl)cyclopent-1-enecarboxylic acid] here?
A: < 0.8 µM

Q: With CCOc1ccccc1-c1ccc(NC(=O)C2=C(C(=O)O)CCC2)c(F)c1 [Compound 17, 2-((2′-ethoxy-3-fluoro-[1,1′-biphenyl]-4-yl)carbamoyl)cyclopent-1-enecarboxylic acid] as the molecule, how does the IC50 read?
A: < 0.8 µM

Q: N#Cc1cccc(-c2ccc(NC(=O)C3=C(C(=O)O)CCC3)cc2Cl)c1 [Compound 18, 2-((2-chloro-3′-cyano-[1,1′-biphenyl]-4-yl)carbamoyl)cyclopent-1-enecarboxylic acid] was tested. Which IC50 did it give?
A: < 0.8 µM

Q: COc1ccc(-c2ccc(NC(=O)C3=C(C(=O)O)CCC3)cc2Cl)cc1 [Compound 19, 2-((2-chloro-4′-methoxy-[1,1′-biphenyl]-4-yl)carbamoyl)cyclopent-1-enecarboxylic acid] was tested. Which IC50 did it give?
A: < 0.8 µM

Q: Which IC50 does the source give for COc1ccc(-c2ccc(NC(=O)C3=C(C(=O)O)CCC3)cc2Cl)cn1 [Compound 22, 2-((3-chloro-4-(6-methoxypyridin-3-yl)phenyl)carbamoyl)cyclopent-1-enecarboxylic acid] here?
A: < 0.8 µM

Q: For COc1ccc(-c2ccc(NC(=O)C3=C(C(=O)O)CCC3)cc2C)cc1 [Compound 23, 2-((4′-methoxy-2-methyl-[1,1′-biphenyl]-4-yl)carbamoyl)cyclopent-1-enecarboxylic acid], which IC50 is on record?
A: < 0.8 µM

Q: O=C(O)C1=C(C(=O)Nc2cc(Br)c(OCc3cc(F)ccc3F)c(Br)c2)CCC1 [Compound 24] was tested. Which IC50 did it give?
A: < 0.8 µM

Q: Which IC50 does the source give for O=C(O)C1=C(C(=O)Nc2ccc(-c3cccc(F)c3)cc2F)CCC1 [Compound 27, 2-((3,3′-difluoro-[1,1′-biphenyl]-4-yl)carbamoyl)cyclopent-1-enecarboxylic acid] here?
A: < 0.8 µM

Q: How did the IC50 turn out when O=C(O)C1=C(C(=O)Nc2cc(Br)c(OCc3ccccc3)c(Br)c2)CSC1 [Compound 29, 4-((4-(benzyloxy)-3,5-dibromophenyl)carbamoyl)-2,5-dihydrothiophene-3-carboxylic acid] was run?
A: < 0.8 µM

Q: For Cc1cc(-c2cc(F)c(NC(=O)C3=C(C(=O)O)CCC3)c(F)c2)ccc1F [Compound 30, 2-((3,4′,5-trifluoro-3′-methyl-[1,1′-biphenyl]-4-yl)carbamoyl)cyclopent-1-enecarboxylic acid], which IC50 is on record?
A: < 0.8 µM

Q: With COc1ccccc1-c1ccc(NC(=O)C2=C(C(=O)O)CCC2)c([N+](=O)[O-])c1 [Compound 32, 2-((2′-methoxy-3-nitro-[1,1′-biphenyl]-4-yl)carbamoyl)cyclopent-1-enecarboxylic acid] as the molecule, how does the IC50 read?
A: < 0.8 µM

Q: Which IC50 does the source give for COc1cc(-c2ccccc2)ccc1NC(=O)C1=C(C(=O)O)CCC1 [Compound 33, 2-((3-methoxy-[1,1′-biphenyl]-4-yl)carbamoyl)cyclopent-1-enecarboxylic acid] here?
A: < 0.8 µM

Q: With COc1cc(-c2ccccc2Cl)ccc1NC(=O)C1=C(C(=O)O)CCC1 [Compound 34, 2-((2′-chloro-3-methoxy-[1,1′-biphenyl]-4-yl)carbamoyl)cyclopent-1-enecarboxylic acid] as the molecule, how does the IC50 read?
A: < 0.8 µM

Q: COc1cc(-c2cccc(OC(F)(F)F)c2)ccc1NC(=O)C1=C(C(=O)O)CCC1 [Compound 35, 2-((3-methoxy-3′-(trifluoromethoxy)-[1,1′-biphenyl]-4-yl)carbamoyl)cyclopent-1-enecarboxylic acid] was tested. Which IC50 did it give?
A: < 0.8 µM

Q: For COc1cc(-c2ccccc2F)ccc1NC(=O)C1=C(C(=O)O)CCC1 [Compound 36, 2-((2′-fluoro-3-methoxy-[1,1′-biphenyl]-4-yl)carbamoyl)cyclopent-1-enecarboxylic acid], which IC50 is on record?
A: < 0.8 µM

Q: With COc1ccc(-c2ccc(NC(=O)C3=C(C(=O)O)CCC3)c(OC)c2)c(OC)c1 [Compound 37, 2-((2′,3,4′-trimethoxy-[1,1′-biphenyl]-4-yl)carbamoyl)cyclopent-1-enecarboxylic acid] as the molecule, how does the IC50 read?
A: < 0.8 µM

Q: With CCOc1cccc(-c2ccc(NC(=O)C3=C(C(=O)O)CCC3)c(OC)c2)c1 [Compound 38, 2-((3′-ethoxy-3-methoxy-[1,1′-biphenyl]-4-yl)carbamoyl)cyclopent-1-enecarboxylic acid] as the molecule, how does the IC50 read?
A: < 0.8 µM

Q: For COc1cccc(-c2ccc(NC(=O)C3=C(C(=O)O)CCC3)c(OC)c2)c1 [Compound 39, 2-((3,3′-dimethoxy-[1,1′-biphenyl]-4-yl)carbamoyl)cyclopent-1-enecarboxylic acid], which IC50 is on record?
A: < 0.8 µM

Q: For O=C(O)C1=C(C(=O)Nc2ccc(-c3ccccc3Cl)cc2)CSC1 [Compound 41, 4-((2′-chloro-[1,1′-biphenyl]-4-yl)carbamoyl)-2,5-dihydrothiophene-3-carboxylic acid], which IC50 is on record?
A: < 0.8 µM

Q: Which IC50 does the source give for Cc1cccc(Sc2ccc(NC(=O)C3=C(C(=O)O)CCC3)cc2)c1 [Compound 42, 2-((4-(m-tolylthio)phenyl)carbamoyl)cyclopent-1-enecarboxylic acid] here?
A: < 0.8 µM

Q: With O=C(O)C1=C(C(=O)Nc2ccc(-c3cccc(OC(F)(F)F)c3)cc2)CCC1 [Compound 43, 2-((3′-(trifluoromethoxy)-[1,1′-biphenyl]-4-yl)carbamoyl)cyclopent-1-enecarboxylic acid] as the molecule, how does the IC50 read?
A: < 0.8 µM

Q: For O=C(O)C1=C(C(=O)Nc2ccc(-c3cc4ccccc4s3)cc2)CCC1 [Compound 44, 2-((4-(benzo[b]thiophen-2-yl)phenyl)carbamoyl)cyclopent-1-enecarboxylic acid], which IC50 is on record?
A: < 0.8 µM

Q: With O=C(O)C1=C(C(=O)Nc2ccc(-c3cc4ccccc4s3)cc2F)CCC1 [Compound 45, 2-((4-(benzo[b]thiophen-2-yl)-2-fluorophenyl)carbamoyl)cyclopent-1-enecarboxylic acid] as the molecule, how does the IC50 read?
A: < 0.8 µM

Q: For CCOc1cccc(-c2ccc(NC(=O)C3=C(C(=O)O)CCC3)c(F)c2)c1 [Compound 46, 2-((3′-ethoxy-3-fluoro-[1,1′-biphenyl]-4-yl)carbamoyl)cyclopent-1-enecarboxylic acid], which IC50 is on record?
A: < 0.8 µM

Q: How did the IC50 turn out when O=C(O)C1=C(C(=O)Nc2ccc(Oc3ccccc3)cc2)CCC1 [Compound 50, 2-((4-phenoxyphenyl)carbamoyl)cyclopent-1-enecarboxylic acid] was run?
A: < 0.8 µM

Q: Which IC50 does the source give for COc1ccccc1-c1ccc(NC(=O)C2=C(C(=O)O)CCC2)c(Cl)c1 [Compound 53, 2-((3-chloro-2′-methoxy-[1,1′-biphenyl]-4-yl)carbamoyl)cyclopent-1-enecarboxylic acid] here?
A: < 0.8 µM

Q: Which IC50 does the source give for COc1ccccc1-c1ccc(NC(=O)C2=C(C(=O)O)CCC2)cc1Cl [Compound 54, 2-((2-chloro-2′-methoxy-[1,1′-biphenyl]-4-yl)carbamoyl)cyclopent-1-enecarboxylic acid] here?
A: < 0.8 µM

Q: How did the IC50 turn out when COc1ccccc1-c1c(F)c(F)c(NC(=O)C2=C(C(=O)O)CCC2)c(F)c1F [Compound 56, 2-((2,3,5,6-tetrafluoro-2′-methoxy-[1,1′-biphenyl]-4-yl)carbamoyl)cyclopent-1-enecarboxylic acid] was run?
A: < 0.8 µM

Q: For COc1ccccc1-c1ccc(NC(=O)C2=C(C(=O)O)CCC2)c(C)c1 [Compound 57, 2-((2′-methoxy-3-methyl-[1,1′-biphenyl]-4-yl)carbamoyl)cyclopent-1-enecarboxylic acid], which IC50 is on record?
A: < 0.8 µM

Q: Which IC50 does the source give for COc1ccccc1-c1cc(Cl)c(NC(=O)C2=C(C(=O)O)CCC2)c(Cl)c1 [Compound 58, 2-((3,5-dichloro-2′-methoxy-[1,1′-biphenyl]-4-yl)carbamoyl)cyclopent-1-enecarboxylic acid] here?
A: < 0.8 µM

Q: CCOc1ccccc1-c1cc(F)c(NC(=O)C2=C(C(=O)O)CCC2)c(F)c1 [Compound 62, 2-((2′-ethoxy-3,5-difluoro-[1,1′-biphenyl]-4-yl)carbamoyl)cyclopent-1-enecarboxylic acid] was tested. Which IC50 did it give?
A: < 0.8 µM

Q: With CCOc1cccc(-c2cc(F)c(NC(=O)C3=C(C(=O)O)CCC3)c(F)c2)c1 [Compound 63, 2-((3′-ethoxy-3,5-difluoro-[1,1′-biphenyl]-4-yl)carbamoyl)cyclopent-1-enecarboxylic acid] as the molecule, how does the IC50 read?
A: < 0.8 µM

Q: How did the IC50 turn out when O=C(O)C1=C(C(=O)Nc2c(F)cc(-c3cccc(OC(F)(F)F)c3)cc2F)CCC1 [Compound 64, 2-((3,5-difluoro-3′-(trifluoromethoxy)-[1,1′-biphenyl]-4-yl)carbamoyl)cyclopent-1-enecarboxylic acid] was run?
A: < 0.8 µM

Q: O=C(O)C1=C(C(=O)Nc2c(F)cc(-c3ccccc3Cl)cc2F)CCC1 [Compound 65, 2-((2′-chloro-3,5-difluoro-[1,1′-biphenyl]-4-yl)carbamoyl)cyclopent-1-enecarboxylic acid] was tested. Which IC50 did it give?
A: < 0.8 µM

Q: O=C(O)C1=C(C(=O)Nc2c(F)cc(-c3ccccc3F)cc2F)CCC1 [Compound 66, 2-((2′,3,5-trifluoro-[1,1′-biphenyl]-4-yl)carbamoyl)cyclopent-1-enecarboxylic acid] was tested. Which IC50 did it give?
A: < 0.8 µM

Q: How did the IC50 turn out when COc1ccc(-c2cc(F)c(NC(=O)C3=C(C(=O)O)CCC3)c(F)c2)c(OC)c1 [Compound 67, 2-((3,5-difluoro-2′,4′-dimethoxy-[1,1′-biphenyl]-4-yl)carbamoyl)cyclopent-1-enecarboxylic acid] was run?
A: < 0.8 µM

Q: For O=C(O)C1=C(C(=O)Nc2ccc(OCc3ccccc3C(F)(F)F)c(Cl)c2)CCC1 [Compound 68], which IC50 is on record?
A: < 0.8 µM
